Measured values reported in patent publication US10336762B2 (priority 2017, dated 2019).
Read-outs that look alike come from different tables or passages of the source.

How the values were obtained:
IRAK4 enzyme = IRAK4 enzyme (Homo sapiens (Human), UniProt Q9NWZ3); experiment: biochemical; assay type: biochemical; conditions: IRAK4 enzyme, 500 μM ATP
TNFα = experiment: cells; assay type: cell-based, human; conditions: LPS-stimulated human monocytes, read-out: EC50 TNF
[1] = Homo sapiens, Monocyte, TNFα content
[2] = Homo sapiens, Monocyte, TNFα by TR-FRET

IRAK4 enzyme, sequence (Q9NWZ3 whole entry): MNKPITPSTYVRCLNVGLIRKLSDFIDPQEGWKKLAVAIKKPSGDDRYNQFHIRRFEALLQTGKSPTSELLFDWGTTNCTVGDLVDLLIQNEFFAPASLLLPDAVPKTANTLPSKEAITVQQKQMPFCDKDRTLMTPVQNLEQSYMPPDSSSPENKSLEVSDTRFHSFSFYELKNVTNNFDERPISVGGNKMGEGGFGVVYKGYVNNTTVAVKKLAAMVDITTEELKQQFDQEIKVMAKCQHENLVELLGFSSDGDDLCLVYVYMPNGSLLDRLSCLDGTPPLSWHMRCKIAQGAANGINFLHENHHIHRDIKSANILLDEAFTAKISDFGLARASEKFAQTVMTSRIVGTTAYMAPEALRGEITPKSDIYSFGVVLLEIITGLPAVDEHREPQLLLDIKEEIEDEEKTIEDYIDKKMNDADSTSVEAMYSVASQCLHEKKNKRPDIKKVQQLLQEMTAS

Row | SMILES | IC50 (IRAK4 enzyme; TR-FRET (HTRF)) [nM] | EC50 (TNFα; [1]) [nM] | IC50 (IRAK4 enzyme; TR-FRET) [nM] | other results
1 | CC(C)(O)[C@H](F)CNC(=O)c1cnc(-c2ccc3cc(C#N)cnn23)cc1Nc1ccn2ccnc2c1 [Example 570, (R)-6-(3-cyanopyrrolo[1,2-b]pyridazin-7-yl)-N-(2-fluoro-3-hydroxy-3-methyl-butyl)-4-(imidazo[1,2-a]pyridin-7-ylamino) nicotinamide] | < 1 | 80 | – | –
2 | CC(C)(O)[C@H](F)CNC(=O)c1cnc(-c2ccc3cc(C#N)cnn23)cc1Nc1cnn([C@@H]2CCOC2)c1 [Example 239, 6-(3-cyanopyrrolo[1,2-b]pyridazin-7-yl)-N-((R)-2-fluoro-3-hydroxy-3-methylbutyl)-4-((1-((R)-tetrahydrofuran-3-yl)-1H-pyrazol-4-yl)amino) nicotinamide] | – | 24 | < 1 | –
3 | COC(=O)NCC(C)(C)CNc1cc(-c2ccc3cc(C#N)cnn23)ncc1C(=O)NC[C@@H](F)C(C)(C)O [Example 718, (R)-methyl (3-((2-(3-cyano-pyrrolo[1,2-b]pyridazin-7-yl)-5-((2-fluoro-3-hydroxy-3-methylbutyl)carbamoyl)pyridin-4-yl)amino)-2,2-dimethylpropyl)carbamate] | 2 | 280 | – | –
4 | CNC(=O)OC[C@H](F)CNC(=O)c1cnc(-c2ccc3cc(C#N)cnn23)cc1NC12CCC(O)(CC1)CC2 [Example 743, (R)-3-(6-(3-cyano-pyrrolo[1,2-b]pyridazin-7-yl)-4-((4-hydroxy-bicyclo[2.2.2]octan-1-yl)amino)nicotin-amido)-2-fluoropropyl methylcarbamate] | < 1 | 54 | – | –
5 | COC(=O)N[C@]1(C)CC[C@H](Nc2cc(-c3ccc4cc(C#N)cnn34)ncc2C(=O)NC[C@@H](F)C(C)(C)O)CC1 [Example 619, methyl ((1S,4s)-4-((2-(3-cyanopyrrolo[1,2-b]pyridazin-7-yl)-5-(((R)-2-fluoro-3-hydroxy-3-methylbutyl)carbamoyl)pyridin-4-yl)amino)-1-methylcyclohexyl) carbamate] | 3 | 168 | – | –
6 | COC(=O)N1CCOC[C@H]1CNc1cc(-c2ccc3cc(C#N)cnn23)ncc1C(=O)NC[C@@H](F)C(C)(C)O [Example 918, (R)-methyl 3-(((2-(3-cyano-pyrrolo[1,2-b]pyridazin-7-yl)-5-(((R)-2-fluoro-3-hydroxy-3-methylbutyl)carbamoyl)pyridin-4-yl)amino)methyl)morpholine-4-carboxylate] | – | – | 31 | EC50 (TNFα; [2]): 416 nM
7 | COc1cncc(Nc2cc(-c3ccc4cc(C#N)cnn34)ncc2C(=O)NC[C@@H](F)C(C)(C)O)c1 [Example 605, (R)-6-(3-cyanopyrrolo[1,2-b]pyridazin-7-yl)-N-(2-fluoro-3-hydroxy-3-methyl-butyl)-4-((5-methoxy-pyridin-3-yl)amino) nicotinamide] | < 1 | 24 | – | –
8 | COC(=O)NCCCNc1cc(-c2ccc3cc(C#N)cnn23)ncc1C(=O)NC[C@@H](F)C(C)(C)O [Example 716, (R)-methyl (3-((2-(3-cyanopyrrolo[1,2-b]pyridazin-7-yl)-5-((2-fluoro-3-hydroxy-3-methylbutyl)carbamoyl)pyridin-4-yl)amino)propyl)carbamate] | < 1 | 55 | – | –
9 | CC(C)(O)[C@H](F)CNC(=O)c1cnc(-c2ccc3cc(C#N)cnn23)cc1N[C@H]1C[C@H](Cn2ccnc2)C1 [Example 783, 4-(((1r,3R)-3-((1H-imidazol-1-yl)methyl)cyclo-butyl)amino)-6-(3-cyanopyrrolo[1,2-b]pyridazin-7-yl)-N-((R)-2-fluoro-3-hydroxy-3-methylbutyl)nicotinamide] | < 1 | 22 | – | –
10 | COC(=O)N1Cc2ccc(Nc3cc(-c4ccc5cc(C#N)cnn45)ncc3C(=O)NC[C@@H](F)C(C)(C)O)cc2C1 [Example 196, (R)-methyl 5-((2-(3-cyanopyrrolo[1,2-b]pyridazin-7-yl)-5-((2-fluoro-3-hydroxy-3-methylbutyl)carbamoyl)pyridin-4-yl)amino)isoindoline-2-carboxylate] | – | 53 | 2 | –
11 | CNC(=O)O[C@@H]1CCC[C@H](Nc2cc(-c3ccc4cc(C#N)cnn34)ncc2C(=O)NC[C@@H](F)C(C)(C)O)C1 [Example 748, (1R,3S)-3-((2-(3-cyano-pyrrolo[1,2-b]pyridazin-7-yl)-5-(((R)-2-fluoro-3-hydroxy-3-methylbutyl)carbamoyl)pyridin-4-yl)amino)cyclohexyl methylcarbamate] | < 1 | 38 | – | –
12 | COC(=O)c1cncc(Nc2cc(-c3ccc4cc(C#N)cnn34)ncc2C(=O)NC[C@@H](F)C(C)(C)O)c1 [Example 594, (R)-methyl 5-((2-(3-cyanopyrrolo[1,2-b]pyridazin-7-yl)-5-((2-fluoro-3-hydroxy-3-methylbutyl)carbamoyl)pyridin-4-yl)amino) nicotinate] | 2 | 316 | – | –
13 | CC(C)(O)[C@H](F)CNC(=O)c1cnc(-c2ccc3cc(C#N)cnn23)cc1NC1CC2(C1)CN(CC(F)(F)F)C2 [Example 898, (R)-6-(3-cyanopyrrolo[1,2-b]pyridazin-7-yl)-N-(2-fluoro-3-hydroxy-3-methylbutyl)-4-((2-(2,2,2-trifluoroethyl)-2-aza-spiro[3.3]heptan-6-yl)amino)nicotinamide] | – | – | < 1 | EC50 (TNFα; [2]): 118 nM
14 | CC(C)(O)[C@H](F)CNC(=O)c1cnc(-c2ccc3cc(C#N)cnn23)cc1Nc1cnn([C@@H]2CCN(C3COC3)C2)c1 [Example 206, 6-(3-cyanopyrrolo[1,2-b]pyridazin-7-yl)-N-((R)-2-fluoro-3-hydroxy-3-methylbutyl)-4-((1-((R)-1-(oxetan-3-yl)pyrrolidin-3-yl)-1H-pyrazol-4-yl)amino)nicotinamide] | – | 133 | 1 | –
15 | N#Cc1cnn2c(-c3cc(NC45CCC(O)(CC4)CC5)c(C(=O)NCC(=O)N4CCC(O)C4)cn3)ccc2c1 [Example 944, (S)-6-(3-cyano-pyrrolo[1,2-b]pyridazin-7-yl)-4-((4-hydroxy-bicyclo[2.2.2]octan-1-yl)amino)-N-(2-(3-hydroxypyrrolidin-1-yl)-2-oxoethyl) nicotinamide] | – | – | < 1 | EC50 (TNFα; [2]): 209 nM
16 | CC(C)(O)[C@H](F)CNC(=O)c1cnc(-c2ccc3cc(C#N)cnn23)cc1NC1CC2(CCN2CC(F)(F)F)C1 (stereo partly drawn) [Example 910, 6-(3-cyanopyrrolo[1,2-b]pyridazin-7-yl)-N-((R)-2-fluoro-3-hydroxy-3-methylbutyl)-4-(((4S,6r)-1-(2,2,2-trifluoroethyl)-1-azaspiro[3.3]heptan-6-yl)amino)nicotinamide] | – | – | 10 | EC50 (TNFα; TNFα by TR-FRET): 1210 nM
17 | Cc1ncc(C2CCC(Nc3cc(-c4ccc5cc(C#N)cnn45)ncc3C(=O)NC[C@@H](F)C(C)(C)O)CC2)o1 (single isomer, unassigned) [Example 645] | 10 | – | – | EC50 (TNFα; TNFα content): 301 nM
18 | CC(C)(O)[C@H](F)CNC(=O)c1cnc(-c2ccc3cc(C#N)cnn23)cc1N[C@]1(C)C[C@@H](O)C1 [Example 429, 6-(3-cyanopyrrolo[1,2-b]pyridazin-7-yl)-N-((R)-2-fluoro-3-hydroxy-3-methylbutyl)-4-(((1r,3R)-3-hydroxy-1-methylcyclo-butyl)amino)nicotinamide] | 1 | 36 | – | –
19 | CC(C)(O)[C@H](F)CNC(=O)c1cnc(-c2ccc3cc(C#N)cnn23)cc1Nc1ccncc1 [Example 593, (R)-6-(3-cyano-pyrrolo[1,2-b]pyridazin-7-yl)-N-(2-fluoro-3-hydroxy-3-methylbutyl)-4-(pyridin-4-ylamino) nicotinamide] | 2 | 143 | – | –
20 | CC(C)(O)[C@H](F)CNC(=O)c1cnc(-c2ccc3cc(C#N)cnn23)cc1Nc1ccc2nc[nH]c2c1 [Example 580, (R)-4-((1H-benzo[d]imidazol-6-yl)amino)-6-(3-cyanopyrrolo[1,2-b]pyridazin-7-yl)-N-(2-fluoro-3-hydroxy-3-methyl-butyl)nicotinamide] | < 1 | 69 | – | –
21 | CC(C)(O)[C@H](F)CNC(=O)c1cnc(-c2ccc3cc(C#N)cnn23)cc1NC1CC2(C1)CC(F)(F)C2 [Example 749, (R)-6-(3-cyanopyrrolo[1,2-b]pyridazin-7-yl)-4-((6,6-difluorospiro[3.3]heptan-2-yl)amino)-N-(2-fluoro-3-hydroxy-3-methylbutyl) nicotinamide] | < 1 | 52 | – | –
22 | CN1CCC[C@H](Nc2cc(-c3ccc4cc(C#N)cnn34)ncc2C(=O)NC[C@@H](F)C(C)(C)O)C1 [Example 260, 6-(3-cyanopyrrolo[1,2-b]pyridazin-7-yl)-N-((R)-2-fluoro-3-hydroxy-3-methylbutyl)-4-(((S)-1-methylpiperidin-3-yl)amino)nicotinamide] | – | 165 | 8 | –
23 | N#CCNC(=O)c1cnc(-c2ccc3cc(C#N)cnn23)cc1NC1CC2(CC(O)C2)C1 (centres unmarked) [Example 453, N-(cyanomethyl)-6-(3-cyanopyrrolo[1,2-b]pyridazin-7-yl)-4-((6-hydroxyspiro[3.3]heptan-2-yl)amino) nicotinamide] | < 1 | 68 | – | –
24 | COC(=O)NC[C@H]1C[C@H](Nc2cc(-c3ccc4cc(C#N)cnn34)ncc2C(=O)NCCC(C)(C)NC(=O)OC(C)(C)C)C1 [Example 816, methyl (((1r,3r)-3-((5-((3-((tert-butoxy-carbonyl)amino)-3-methylbutyl)carbamoyl)-2-(3-cyanopyrrolo[1,2-b]pyridazin-7-yl)pyridin-4-yl)amino)cyclobutyl)methyl)carbamate] | – | – | < 1 | EC50 (TNFα; [2]): 41 nM
25 | CC(C)(O)[C@H](F)CNC(=O)c1cnc(-c2ccc3cc(C#N)cnn23)cc1N[C@H]1C[C@H](CNC(=O)C2(F)CC2)C1 [Example 828, 6-(3-cyanopyrrolo[1,2-b]pyridazin-7-yl)-N-((R)-2-fluoro-3-hydroxy-3-methylbutyl)-4-(((1r,3R)-3-((1-fluorocyclopropane-1-carboxamido)methyl)cyclobutyl)amino) nicotinamide] | – | – | < 1 | EC50 (TNFα; [2]): 12 nM
